Data from patent publication US12385839B2, “Use of protein in predicting drug properties” (priority 2021, dated 2025).
Where “and” joins values, the source holds several entries; their conditions need not be identical. Identical values can stand only once.

Key:
[1] = cited from earlier work; for LD50: modelling table; for Toxicity: toxicity grade by LD50, trailing figure = number of pesticides in group
[2] = target: T1, human serum albumin (HSA) (Homo sapiens, UniProt P02768); experiment: Circular dichroism spectrum, secondary structure (α-helix content) of HSA; details: HSA 2×10^−6 M
Procedure: the mixed solution to be tested was preheated at […] for 2-5 minutes, and the CD spectrum of HSA was recorded in the wavelength range of 200-500 nm . The concentration of HSA was kept at 2×10^−6 M, and the pesticide was (0-20)×10^−6 m. Firstly, HSA was measured, and then the ratio of HSA to pesticides needed to be determined specifically, which was preliminarily determined according to the ratio of 1:1, 1:2 and 1:3.
According to the following equation, the result of CD spectrum was usually expressed as the mean residue ellipticity (MRE), and the unit was deg·cm^2·dmol^−1. MRE=ObservedCD(mdeg)/(10Cpnl) (9);
in which Cp is the molar concentration of protein, n is the number (585) of amino acid residues, and 1 is the path length (1 mm). The α helicity of free and bound HSA is calculated from MRE values using the following formula: α−Helix(%)=[(−MRE208−4000)×100]/(33000-4000) (10)
in which the MRE208 is the MRE value observed at 208 nm , 4000 is the MRE value of random coil conformation at 208 nm , and […] is the MRE value of pure α helix at 208 nm .

[3] = target: T1, human serum albumin (HSA); experiment: Fluorescence emission spectrum (quenching) of HSA with carbamate pesticides; type: binding; details: for Ksv (37°) / ΔG(37°) / Binding distance/r / Number of binding sites/n: modelling table; for Kq / Ksv / n (number of binding sites) / Kd / Ka (binding constant): pH 7.4; for R (binding distance): Förster energy transfer; for fluorescence of HSA quenched by pesticide: titration of pesticide; for Kd: Ka (binding constant); for ΔH^0 / ΔS^0: Van't Hoff, 296-310 K
Procedure: the mixed solution to be tested was preheated at […] for 3 minutes, and the emission spectrum of HSA with carbamate pesticides was measured at 300-500 nm . The excitation wavelength was set at 280 nm , and the slit width for both excitation and emission was 15 nm; the HSA concentration was kept constant at 5×10^−7 M, and the pesticide concentration was (0-105)×10^−7 M.
The internal filtering effect of fluorescence signal was corrected according to the following formula: Fcor=Fobsexp[(Aex+Aem)/2] (1);
in this formula, Fcor and Fobs represent corrected fluorescence signal and observed fluorescence signal, respectively, and Aex and Aem represent absorbance of the mixed solution to be tested at excitation wavelength and emission wavelengths, respectively; the quenching constant, number of binding sites, binding constant, free energy and binding distance of different drugs were obtained by fluorescence emission spectra, and a BP neural network model was obtained. Specifically, they were obtained as follows:
There is a linear relationship between F0/F and [Q] to distinguish whether it is static quenching or dynamic quenching. The fluorescence quenching data are analyzed by Stern-Volmer equation to clarify the quenching mechanism: F0/F=1+KSV[Q]=1+Kqτ0[Q] (2);
in the formula, F0 and F are fluorescence signals […] quencher, respectively. Ksv is Stern-Volmer quenching constant; Kq is a quenching rate constant of biomolecules; τ0 is the average lifetime of biomolecules without quencher (about 10^−8 s); [Q] is the concentration of quencher.
The maximum dynamic quenching rate constant of all kinds of quenchers on polymers was 2.0×10^10 L·mol^−1·s^−1. Static quenching and dynamic quenching could be judged according to this value. If K^q was greater than 2.0×10^10 L·mol^−1·s^−1, it belonged to static quenching. Otherwise, it belonged to dynamic quenching.
In this part, the binding sites and binding constants between carbamate pesticides and HSA were calculated. The following formula was used to calculate the number of binding sites (n) and the binding constant (Ka) of carbamate pesticides and HSA: log[(F0−F)/F]=log Ka+nlog[Q] (3);
The interactions between biological molecules and drug molecules were weak intermolecular interactions, including hydrogen bonds, van der Waals forces, electrostatic forces and hydrophobic interactions. By using Van't Hoff equation, the thermodynamic constants of drug-protein interaction were obtained, and the main types of drug-protein interaction were judged according to the changes of binding constants under different conditions. LnK=−ΔH^0/RT+ΔS^0/R (4); ΔG^0=ΔH^0−TΔS^0 (5);
There is a relationship among energy transfer efficiency E, distance r between energy donor and energy receptor and energy transfer distance R0. E=1−F/F0=R0^6/(R0^6+r^6) (6);
E represents the transfer efficiency between donor and receptor, r is the average distance between donor and receptor, and R0 is the critical distance when the transfer efficiency is 50%. R0^6=8.79×10^−K^2N^−4φJ (7)
K^2 is the orientation related to the geometry of donor and receptor of dipole. For random orientation in fluid, K^2=2/3; N is the average refractive index of the medium in the wavelength range with obvious spectral overlap, and the refractive index of water and organic matter is 1.336; φ is the quantum yield of donor, and the quantum yield of tryptophan in HSA is about 0.118; J represents the influence of spectral overlap between the emission spectrum of the donor and the absorption spectrum of the receptor, and can be calculated by the following formula: j=ΣF(λ)ϵ(λ)λ^4Δλ/ΣF(λ) Δλ (8);
F(λ) is the corrected fluorescence signal of the donor in the wavelength range from λ to (λ+Δλ), while ϵ(λ) is the extinction coefficient of the receptor at λ.

T1 sequence (P02768 25-609): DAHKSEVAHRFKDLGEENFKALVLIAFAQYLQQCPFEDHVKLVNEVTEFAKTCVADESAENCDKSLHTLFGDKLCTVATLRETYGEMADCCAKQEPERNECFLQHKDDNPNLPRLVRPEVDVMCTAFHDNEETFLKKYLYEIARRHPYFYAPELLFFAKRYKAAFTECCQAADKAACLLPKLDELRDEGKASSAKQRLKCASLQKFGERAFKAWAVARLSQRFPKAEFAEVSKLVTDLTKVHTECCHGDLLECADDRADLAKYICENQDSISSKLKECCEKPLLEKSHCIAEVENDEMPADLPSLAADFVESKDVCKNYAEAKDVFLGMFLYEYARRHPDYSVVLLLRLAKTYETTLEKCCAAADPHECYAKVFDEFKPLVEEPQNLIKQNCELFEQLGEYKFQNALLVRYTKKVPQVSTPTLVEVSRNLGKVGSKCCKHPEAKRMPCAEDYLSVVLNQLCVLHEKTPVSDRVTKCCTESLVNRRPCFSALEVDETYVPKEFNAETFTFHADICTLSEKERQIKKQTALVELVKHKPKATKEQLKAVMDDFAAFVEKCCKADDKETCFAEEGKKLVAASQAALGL

Row | SMILES | Toxicity [1] | α-helix contents ([2]; 5:1 (Pesticide:HSA)) | α-helix contents ([2]; 10:1 (Pesticide:HSA)) | Ksv (37°) [3] | ΔG^0 ([3]; 296 K) | Kq ([3]; 296 K) | Ksv ([3]; 296 K) | n (number of binding sites) ([3]; 296 K) | ΔG^0 ([3]; 303 K) | Kq ([3]; 303 K) | Ksv ([3]; 303 K) | n (number of binding sites) ([3]; 303 K) | ΔG^0 ([3]; 310 K) | R (binding distance) ([3]; 310 K) | Kq ([3]; 310 K) | Ksv ([3]; 310 K) | n (number of binding sites) ([3]; 310 K) | fluorescence of HSA quenched by pesticide ([3]; 310 K) | ΔH^0 [3] | ΔS^0 [3] | further results
1 | CNC(=O)Oc1ccccc1OC(C)C [Propoxur, propoxur] | Highly | 50.121% | 49.341% | 50525.98687 | -17.536 kJ/mol | 3.425 ± 0.132 10^12 M^−1s^−1 | 3.425 ± 0.132 10^4 M^−1 | 0.706 ± 0.014 | -19.082 kJ/mol | 4.353 ± 0.121 10^12 M^−1s^−1 | 4.353 ± 0.121 10^4 M^−1 | 0.729 ± 0.013 | -20.627 kJ/mol | 3.138 nm | 5.053 ± 0.120 10^12 M^−1s^−1 | 5.053 ± 0.120 10^4 M^−1 | 0.757 ± 0.011 | quenched | 47.825 kJ/mol | 220.816 J · mol^−1 · K^−1 | LD50 [1]: 41 mg/kg; ΔG(37°) [3]: −20.63; Kd ([3]; 296 K): 794 µM; Kd ([3]; 303 K): 527 µM; Kd ([3]; 310 K): 330 µM; Binding distance/r [3]: 3.138; Number of binding sites/n [3]: 0.7565
2 | CNC(=O)ON=C(CSC)C(C)(C)C [Thiofanox, thiofanox] | Highly | 48.904% | 48.180% | 58762.03726 | -17.949 kJ/mol | 3.871 ± 0.035 10^12 M^−1s^−1 | 3.871 ± 0.035 10^4 M^−1 | 0.714 ± 0.014 | -19.107 kJ/mol | 4.728 ± 0.064 10^12 M^−1s^−1 | 4.728 ± 0.064 10^4 M^−1 | 0.725 ± 0.005 | -20.265 kJ/mol | 1.883 nm | 5.876 ± 0.198 10^12 M^−1s^−1 | 5.876 ± 0.198 10^4 M^−1 | 0.730 ± 0.003 | quenched | 31.025 kJ/mol | 165.452 J · mol^−1 · K^−1 | LD50 [1]: 8.5 mg/kg; ΔG(37°) [3]: −20.27; Kd ([3]; 296 K): 688 µM; Kd ([3]; 303 K): 496 µM; Kd ([3]; 310 K): 390 µM; Binding distance/r [3]: 1.883; Number of binding sites/n [3]: 0.7299
3 | CNC(=O)O/N=C(\CS(C)(=O)=O)C(C)(C)C [Thiofanox-sulfone, thiofanox sulfone] | Highly | 51.076% | 50.482% | 55736.87796 and 53392.17364 | -18.004 kJ/mol | 3.906 ± 0.043 10^12 M^−1s^−1 | 3.906 ± 0.043 10^4 M^−1 | 0.719 ± 0.011 | -20.751 kJ/mol | 4.102 ± 0.034 10^12 M^−1s^−1 | 4.102 ± 0.034 10^4 M^−1 | 0.786 ± 0.008 | -23.497 kJ/mol | 2.907 nm | 5.574 ± 0.138 10^12 M^−1s^−1 | 5.574 ± 0.138 10^4 M^−1 | 0.848 ± 0.004 | quenched | 98.120 kJ/mol | 392.314 J · mol^−1 · K^−1 | Ka (binding constant) ([3]; 296 K): (1.559 ± 0.162) × 10^3 M^−1; Ka (binding constant) ([3]; 303 K): (3.514 ± 0.247) × 10^3 M^−1; Ka (binding constant) ([3]; 310 K): (9.450 ± 0.597) × 10^3 M^−1; Number of binding sites/n [3]: 0.8476 and 0.7456
